Results from patent US20130101680A1, “RADIOTHERAPY ENHANCER” (priority 2006, published 2013).

Experiments:
[1] = tested on: human pancreatic cancer strain PAN-4; experiment: Tumor growth inhibition by S-1, 5-FU or gemcitabine and X-ray, human pancreatic cancer strain PAN-4 in nude mice (Test Example 3); format: in vivo, human (in BALB/cA-nu mouse); details: for radiotherapy enhancing effect (combination with X-ray), in words: combination with X-ray 2 Gy, PAN-4
Experimental: (b) Preparation of test solution II: 5-fluorouracil (5-FU: Wako Pure Chemical Industries, Ltd.) was dissolved in physiological saline at a concentration of 1.5 mg/mL and sterilized by filtration with a 0.45-micron Millipore filter to obtain a drug solution of 15 mg/kg as 5-FU.
(c) Preparation of test solution 3: Gemcitabine (2′-difluoro-2′,3′-dideoxycytidine: Sigma) was dissolved in physiological saline at a concentration of 5 mg/mL and sterilized by filtration with a 0.45-micron Millipore filter to obtain a drug solution of 50 mg/kg as gemcitabine.
(d) Radiation (X-ray) irradiation method: Local irradiation was performed on a human tumor strain transplanted into the right femoral region of the mouse using MBR-1505R Type 2 X-ray Irradiation System of Hitachi Medical Corporation under an irradiation condition (irradiation position) so that exposure per mouse should be 2 Gy or 5 Gy. To prevent systemic irradiation, mice were placed in a storage box made of lead so that only their right leg should be exposed to radiation.
(e) Test: The human pancreatic cancer strain (PAN-4) subcutaneously transplanted into the back of a BALB/cA-nu mouse and grown beforehand was removed, cut into small fragments of about 2×2 mm^2 with scissors in physiological saline, and subcutaneously transplanted into the right femoral region of 5 or 6-week-old mice of the same strain with a transplantation needle. The mice were prebred for at least 1 to 2 weeks and divided into the control group, the radiation alone group, the drug alone group, and the drug plus radiation group, so that the tumor volume and standard deviation (S.D.) in each group (n=6 per group) should be as uniform as possible. Then, drug administration and X-ray irradiation were initiated. […] For 5-FU and gemcitabine, the drug treatment group was administered intravenously with 0.1 mL of the above-described 5-FU and gemcitabine drug solutions per body weight 10 g using a syringe for intravenous infusion on days 1 and 8. The radiation group was irradiated with 2 Gy or 5 Gy of X-ray in the above-described manner within about 1 hour after administration of each drug solution on day 1, at the start of the test, and on day 8. Tumor-bearing mice in the control group (non-radiation/non-drug treatment group) and the radiation alone group were orally administered with 0.5% HPMC solution alone in the same manner for 14 consecutive days.
By using the above-mentioned numerical formula 1, the tumor volume of each mouse in each group was obtained prior to the start of treatment experiment, on days 3, 5, 8 (1 week later) and 11 during the treatment period, and days 15 (2 weeks later), 18, 22 (3 weeks later), 25, and 29 (4 weeks later) after completion of treatment. For the PAN-4 strain, a relative tumor volume (RTV) to the tumor volume at the start was obtained. The mean tumor growth inhibition rate (%) in each treatment group based on the control group was obtained by using the above-mentioned numerical formula 2 on days 15, at the end of the treatment period, 22, and 29 and shown in Table 4.

[2] = No-observed adverse effect level / maximum nontoxic dose in mice; details: as 5-FU; PAN-4 tumor-transplanted mouse, intravenous on days 1 and 8
[3] = BALB/cA-nu, mouse, in vivo, iv
[4] = tested on: human lung cancer LC-11 strain; experiment: X-ray irradiation enhancing effect of cisplatin, human lung cancer LC-11 strain in nude mice (Comparative Example 1); format: in vivo, human (in BALB/cA-nu mouse)
Experimental: (a) Preparation of test solution I: The cisplatin solution (0.5 mg/mL) available from Bristol-Myers Squibb Company was used as it was. 0.1 mL per mouse body weight 10 g was administered for the dose of cisplatin 5 mg/kg, and […] per mouse body weight 10 g was administered for the dose of 7.5 mg/kg.
(b) Radiation (X-ray) irradiation method: Local irradiation was performed on a human tumor strain transplanted into the right femoral region of the mouse using MBR-1505R Type 2 X-ray Irradiation System of Hitachi Medical Corporation under an irradiation condition (irradiation position) so that exposure per mouse should be 2 Gy or 5 Gy. To prevent systemic irradiation, mice were placed in a storage box made of lead so that only their right leg should be exposed to radiation.
(c) Test: The human lung cancer LC-11 strain subcutaneously transplanted into the back of a BALB/cA-nu mouse and grown beforehand were removed, cut into small fragments of about 2×2 mm^2 with scissors in physiological saline, and subcutaneously transplanted into the right femoral region of 5 to 6-week-old mice of the same strain with a transplantation needle. The mice were bred for at least 1 to 2 weeks and divided into the control group, the radiation alone group, the drug alone group, and the drug plus radiation group, so that the tumor volume and standard deviation (S.D.) in each group (n=6 per group) should be as uniform as possible. Then, drug administration and X-ray irradiation were initiated. For the drug treatment group, 0.1 mL per body weight 10 g of a cisplatin solution for the dose of 5 mg/kg or […] per body weight 10 g of this solution for the dose of 7.5 mg/kg was administered into the caudal vein on day 1. The radiation group was irradiated with 2 Gy of X-ray in the above-described manner on day 1, at the start of the test, and on day 8. For tumor-bearing mice in the control group (non-radiation/non-drug treatment group) and the radiation alone group, physiological saline was administered into the caudal vein on day 1.
By using the above-mentioned numerical formula 1, the tumor volume of each mouse in each group was obtained prior to the start of treatment experiment, on days 3, 5, 8 (1 week later) and 11 during the treatment period, and days 15 (2 weeks later), 18, 22 (3 weeks later), 25, and 29 (4 weeks later) after completion of treatment. A relative tumor volume (RTV) to the tumor volume at the start of the test was obtained for each mouse. Then, the mean tumor growth inhibition rate (IR; %) in each treatment group based on the control group was obtained by using the above-mentioned numerical formula 2 on day 15, at the end of the treatment period, and on day 29, at 4 weeks later, and shown in Table 3.

[5] = 5-FU 15 mg/kg i.v. days 1 and 8 + X-ray 2 Gy
[6] = 5-FU 15 mg/kg i.v. days 1 and 8, alone
[7] = Gemcitabine 50 mg/kg i.v. days 1 and 8 + X-ray 2 Gy
[8] = Gemcitabine 50 mg/kg i.v. days 1 and 8, alone
[9] = CDDP 5.0 mg/kg i.v. day 1 + X-ray 2 Gy
[10] = CDDP 5.0 mg/kg i.v. day 1, alone
[11] = CDDP 7.5 mg/kg i.v. day 1 + X-ray 2 Gy
[12] = CDDP 7.5 mg/kg i.v. day 1, alone

In the case of `O=c1[nH]cc(F)c(=O)[nH]1` [5-FU, 5-fluorouracil], the “Tumor growth inhibition rate (IR) (%) Day 15” value [1, 5] is reported as 15.8%, the “Tumor growth inhibition rate (IR) (%) Day 22” value [1, 5] is reported as 27.5% and the “Tumor growth inhibition rate (IR) (%) Day 29” value [1, 5] is reported as 36.9%. For the same compound, the “Tumor growth inhibition rate (IR) (%) Day 15” value [1, 6] was 12.4%, the “Tumor growth inhibition rate (IR) (%) Day 22” value [1, 6] was 16.8% and the “Tumor growth inhibition rate (IR) (%) Day 29” value [1, 6] was 29.2%. The “radiotherapy enhancing effect (combination with X-ray), in words” value (from here on “radiotherapy enhancing effect”) [1] was “did not show marked effect of the combination use” and the maximum nontoxic dose [2] was 15 mg/kg.

With `Nc1ccn([C@@H]2O[C@H](CO)[C@@H](O)C2(F)F)c(=O)n1` [Gemcitabine] the “Tumor growth inhibition rate (IR) (%) Day 15” value [1, 7] was 40.0%, the “Tumor growth inhibition rate (IR) (%) Day 15” value ([1]; Gemcitabine 50 mg/kg i.v. days 1 and 8 + X-ray 2 Gy, listed as gemcitabine) was 40% and the “Tumor growth inhibition rate (IR) (%) Day 22” value [1, 7] was 62.3%. For the same compound, the “Tumor growth inhibition rate (IR) (%) Day 29” value [1, 7] was 63.9%, the “Tumor growth inhibition rate (IR) (%) Day 15” value [1, 8] was 39.8% and the “Tumor growth inhibition rate (IR) (%) Day 22” value [1, 8] was 51.1%. The “Tumor growth inhibition rate (IR) (%) Day 29” value [1, 8] was 51.1%, the “radiotherapy enhancing effect” value [1] was “did not show a strong effect of the combination use” and the “no-observed adverse effect level” value [3] was 50 mg/kg.

With `N.N.[Cl][Pt][Cl]` [cisplatin] the “IR (%) Day 15” value [4, 9] was 53.8%, the “IR (%) Day 29” value [4, 9] was 46.8% and the “IR (%) Day 15” value [4, 10] was 39.9%. For the same compound, the “IR (%) Day 29” value [4, 10] was 45.6%, the “IR (%) Day 15” value [4, 11] was 54.6% and the “IR (%) Day 29” value [4, 11] was 66.8%. The “IR (%) Day 15” value [4, 12] was 55.8%, the “IR (%) Day 29” value [4, 12] was 60.2% and the “radiotherapy enhancing effect” value ([4]; cisplatin 5 mg/kg or 7.5 mg/kg with X-ray 2 Gy, LC-11) was “did not notably enhance antitumor effects compared with treatment with cisplatin alone”.
